Experimental data taken from patent US9759725B2, “Treatment-induced damage to the tumor micro-environment promotes cancer therapy resistance through extracellular proteins” (Fred Hutchinson Cancer Research Center, priority 2012, dated 2017).
Entries after “also recorded” stand apart in the source; their conditions may differ. One block for each compound: values may come before it.

Tests used:
PC3 cells [1] = experiment: In vivo chemoresistance study: subrenal capsule xenografts treated with three cycles of MIT; set-up: species or system mouse
Description: All animal studies were performed in accordance with protocols approved by the Institutional Animal Care and Use Committee (IACUC) of Fred Hutchinson Cancer Research Center, and were carried out in accordance with the NIH Guide for laboratory animals. Mouse care/welfare and veterinary oversight were provided by the center animal care. ICR SCID mice (Taconic, Inc.) at an age of approximately 6 weeks (25 g body weight) were used. Rat tail collagen (high concentration, type I) was prepared before the ice-cold collagen solution was neutralized and adjusted to the proper osmolarity by adding a mixture of NaOH and ×10 PBS. To prepare tissue recombinants, fibroblasts (PSC27 strain) and epithelial cells (PC3, BPH1 or MDA-MB-231) were mixed at a ratio of 1:1, with each recombinant comprised of 250,000 cells of each line. After polymerization, the cell/collagen mixture was overlaid with growth medium and incubated at 37° C. for 1 hour before implantation.
Xenografting was performed under isoflurane anesthesia. A pocket beneath the back skin was formed using surgical scissors, with an oblique incision (<1 cm) made on the capsule surface parallel and adjacent to the long axis of each kidney. Cells were injected under the capsule with a blunt 25-gauge needle and a glass Hamilton syringe via a transrenal injection, forming a starting tumor with a volume of 1 to 2 mm^3. The kidney was returned to the retroperitoneal space and the skin was closed with surgical staples. The growth of xenografts was assessed at weekly intervals using ultrasound instruments. Animals were sacrificed at 2-8 weeks post transplantation, based on the tumor burden and pathological progression of tested animals. Upon dissection, tumor volume (V) was measured and calculated according to the tumor length (1) and width (w) by the following formula: V=(π/6)×((l+w)/2)^3 (Anand et al., Nat. Genet 31:301-305, 2002). Tumors were snap-frozen or processed conventionally for formalin fixation. Resulting sections were used for hematoxylin/eosin staining, and immunostaining for selected gene expression markers.
For chemoresistance studies, ICR SCID mice received subrenal capsule xenografts by implantation according to the procedure described above. After surgery, mice were given standard laboratory diets and water ad libitum for 2 weeks, to allow tumor uptake and growth initiation. Starting from the 3rd week (when tumor sizes reached from about 4 to about 8 mm in diameter), mice received Mitoxantrone at a dose of 0.2 mg/kg by i.p. injection, or vehicle control, on day 1 of week 3, week 5, and week 7 (Alderton et al., Cancer Res. 52:194-201, 1992). Between 8 and 12 mice were randomly assigned to each study arm. A total regimen of 3 2-week cycles was administered. After the final treatment cycle the mice were sacrificed, kidneys were removed for tumor measurement and histological analysis. The cumulative Mitoxantrone dose received per mouse was 0.6 mg/kg. Each experimental arm comprised 5-8 mice per treatment cohort.

[2] = system: primary prostate fibroblasts (PSC27 cells)
Description: After treatment, the cells were rinsed 3 times with PBS and left to recover for 3 days in PSC medium.
Cells growing on coverslips were rinsed, subjected to fixation in 4% paraformaldehyde and permeabilization with 0.1% Triton-X100 prior to immunostaining Primary mouse monoclonal anti-phospho-Histone H2A.X (Ser139) (clone JBW301) and secondary antibody Alexa Fluor® 488 (or 594)-conjugated F(ab′)2 goat anti-mouse IgG were sequentially applied. Nuclei were counterstained with 2 μg/ml of 4′,6-diamidino-2-phenylindole (DAPI) and coverslips were mounted onto glass slides. Upon visual examination of the DNA damage extent with immunofluorescence microscopy, DDR foci were recorded with a 4-category counting strategy, namely 4 classes: 0 foci, 1 to 3 foci, 4 to 10 foci, and >10 foci. Data from each cell line/treatment were averaged from a pool of 3 independent fields counting 100 nuclei per pool.

Wnt16b = experiment: Systemic effect of MIT on Wnt16b expression in mouse organs (Western immunoblot); type: in vivo; conditions: mice, three MIT treatments over eight weeks
Description: To determine the systemic effects of MIT treatment on Wnt16b expression, parallel experiments involved administering MIT or vehicle as per the treatment schema above, to cohorts of mice (n=6) without xenografts. At the completion of the 8-week treatment regimen, mice were euthanized and various tissues were rapidly resected and snap frozen or fixed in formalin. Following protein isolations, Western immunoblot analysis was performed for Wnt16b expression, as described above.

PC3 cells [3] = experiment: Acute in vivo response to MIT: cleaved caspase 3 IHC in xenografts; set-up: species or system mouse; conditions: 24 hours after MIT
Description: For assessments of the acute effects of chemotherapy, mice harboring xenografts of PC3 cells combined with PSC27 fibroblasts were treated with Mitoxantrone 0.2 mg/kg by i.p. injection, or vehicle control. Xenografts were collected 24 hour after treatment and tissues were processed for IHC. Apoptosis was assessed by staining with anti-caspase 3 antibody (cleaved, BioCare Medical). On adjacent sections, immunostaining with anti-γH2AX (Upstate) was performed to quantitate cells with DNA-damage.

PC#/PSC27 cells = experiment: Subcutaneous grafts of PC#/PSC27 cells treated with systemic RAPA and MIT; type: in vivo; conditions: RAPA used with MIT
prostate cancer cells [4] = experiment: Trans-well invasion of prostate cancer cells in fibroblast conditioned medium; type: cell-based, human; conditions: 24 h of treatment
Description: All assays were performed at least three times and reported as mean values. Assays of cell proliferation were performed with the CellTiter96® AQueous One Solution Cell Proliferation Assay (MTS) with signals captured using a 96-well plate reader or by direct counting using a hemacytometer. For trans-well migration and invasion assays, serum-starved cells in serum-free medium were added to the top chambers of Cultrex 24-well Cell Migration Assay plates (8 μm size) coated with or without basement membrane extract (BM) prepared as 0.5× of stock solution. CM from fibroblasts or regular epithelial media containing 10% fetal calf serum (FCS) were added to the bottom chambers. Migrating or invading cells in the bottom chambers were stained and plate absorbance was recorded at 485/520 nm emission. Each assay was performed in triplicate and measured at 24 hour time points over 3 days and presented as the average absorbance of migrating cells and invading cells, with human HeLA cervical cancer cell line (ATCC) used as a reference positive control. […] Luciferase assays were performed using a Dual-Luciferase Reporter Assay kit, and fold induction for each cell line was calculated as normalized relative light units of TOPFLASH divided by those of FOPFLASH. […]

prostate cancer cells [5] = experiment: Proliferation of prostate cancer cells in fibroblast conditioned medium; type: cell-based, human; conditions: cell numbers 72 hours after treatment
Description: The cultures were incubated for 3 days after which cells were detached with trypsin and the total cell number was determined by direct counting with hemacytometer. The PSC27/BPH1-GFP proportion was determined on a FACScan using GFP fluorescence as a marker for BPH1-GFP cells. […] The supernatant was harvested, filtered, concentrated and either stored frozen at −80° C. or applied immediately. BPH1-GFP, PC3 and other cell lines were seeded in conditioned medium or fresh DMEM+0.5% FBS, and grown for specific time periods and the total number of cells was determined by direct counting. All assays were performed at least three times and reported as mean values. Assays of cell proliferation were performed with the CellTiter96® AQueous One Solution Cell Proliferation Assay (MTS) with signals captured using a 96-well plate reader or by direct counting using a hemacytometer. […] Migrating or invading cells in the bottom chambers were stained and plate absorbance was recorded at 485/520 nm emission. Each assay was performed in triplicate and measured at 24 hour time points over 3 days and presented as the average absorbance of migrating cells and invading cells, with human HeLA cervical cancer cell line (ATCC) used as a reference positive control. […]

prostate cancer cells [6] = experiment: Chemoresistance (viability) assay with MIT in fibroblast conditioned medium; type: cell-based, human
Description: Chemoresistance assays were performed using epithelial cells cultured with either DMEM and low serum (0.5% FCS) (abbreviated as “DMEM”), or conditioned medium (CM) generated from PSC27, […] or OVF28901 cells expressing vector controls, WNT16B, or siRNAs. […] Cell viability was then assayed, and the percentage of viable cells was calculated by comparing each experiment to vehicle-treated cells. Each assay was repeated a minimum of 3 times with results reported as mean±s.e.m. For chemoresistance assays, various neoplastic epithelial cells were cultured with either DMEM of low serum (0.5% FBS) only (abbreviated as “DMEM”), or CM generated from PSC27, HBF1023 or OVF28901 in various states (e.g., WNT16B overexpression, WNT16B knockdown, irradiated). […] Cell viability was assayed by MTS or direct counting with trypan blue, and the percentage of viable cells was calculated by normalizing absorbance of each experiment to untreated cells. To assess the influence of WNT16B across a range of MIT concentrations, a series of drug concentrations were applied bracketing the IC50 dose, with percent survival plotted against MIT dose at a 3-day time point. […] Luciferase assays were performed using a Dual-Luciferase Reporter Assay kit, and fold induction for each cell line was calculated as normalized relative light units of TOPFLASH divided by those of FOPFLASH. […]

PC3 cells [7] = experiment: Caspase 3/7 apoptosis assay of PC3 cells exposed to MIT; type: cell-based, human; conditions: 24 hour of MIT exposure (IC50)
Description: For apoptosis assays, 0.2×10^6 PC3 cells were dispensed into 6-well culture plates and co-cultured with media conditioned from PSC27 sublines. […] For the morphological analysis, bright field pictures were taken for PC3 cells with inverted phase-contrast microscopy.

epithelial cells = experiment: EMT-associated gene/protein expression in epithelial cells exposed to WNT16B conditioned medium; type: cell-based, human; conditions: epithelial cells in WNT16B fibroblast CM
WNT16B promoter = WNT16B promoter luciferase reporter assay; type: cell-based, human; conditions: compared to untreated cells
Description: The immediate 5′ upstream sequences containing putative NF-κB binding elements of the WNT16B gene were amplified from genomic DNA extracted from PSC27 cells by a DNeasy Blood and Tissue kit (QIAGEN). PCR products were cloned into pCR2.1-TOPO vector (Invitrogen) and each insert was sequenced for confirmation. PCR fragments were then double-digested and subcloned into a reporter luciferase vector pGL4.22 vector. Constructs containing one or multiple mutant NF-κB binding sites were generated from the reporter vector series by site-directed mutagenesis. The NAT11-Luc2CP-IRES-nEGFP control construct that contains large copy numbers of NF-κB binding sequences and an optimized IL-2 minimal promoter as part of NFκB-activated transgene (NAT) system was kindly provided by Dr. Hatakeyama (Hokkaido University). All constructs were confirmed by DNA sequencing in both directions. Reporter vectors were co-transfected with pRL-TK vector for transfection efficiency controls and internal normalization for gene expression measurements. Cells were either treated with 20 ng/ml TNF-α for 90 min, exposed to 10 Gy γ-irradiation or 1 μM Mitoxantrone for 1 day. […] Luciferase activity was measured using the Luciferase Assay System and normalized luciferase activities were calculated as light units normalized to renilla luciferase activity present in each specimen.

Compound: O=C1c2c(O)ccc(O)c2C(=O)c2c(NCCNCCO)ccc(NCCNCCO)c21 [MIT, mitoxantrone]
- tumor volumes, MIT vs no MIT (PC3 cells [1]; BPH-1 or PC3 plus PSC27^WNT16B or PSC27^C fibroblasts, three cycles of MIT): significantly reduced
- tumor volume after MIT (PC3 cells [1]; PC3 + PSC27^C+shRNA^C grafts): 20 mm^3
- tumor volume after MIT (PC3 cells [1]; PC3+PSC27-RAD grafts (300 mm^3 without MIT)): 55 mm^3
- tumor volume after MIT (PC3 cells [1]; PC3+PSC27^C grafts): 13 mm^3
- tumor volume after MIT (PC3 cells [1]; PC3+PSC27^WNT16B grafts): 78 mm^3
- tumor size, MIT-treated vs untreated mice (PC3 cells [1]; tumor cells with unirradiated PSC27 fibroblasts (PSC27^C)): substantially smaller
- number of γ-H2AX foci [2]: substantially increased
- expression of WNT16B protein in prostates, breasts and ovaries (Wnt16b): induced
- apoptotic cells (cleaved caspase 3 IHC) (PC3 cells [3]; PC3+PSC27^C grafts): 34%
- apoptotic cells (cleaved caspase 3 IHC) (PC3 cells [3]; PC3+PSC27^WNT16B tumors): 14%

Compound: CO[C@H]1C[C@@H]2CC[C@@H](C)[C@@](O)(O2)C(=O)C(=O)N2CCCC[C@H]2C(=O)O[C@H]([C@H](C)C[C@@H]2CC[C@@H](O)[C@H](OC)C2)CC(=O)[C@H](C)/C=C(\C)[C@@H](O)[C@@H](OC)C(=O)[C@H](C)C[C@H](C)/C=C/C=C/C=C/1C [RAPA, Rapamycin]
- reduction in tumor volumes (PC#/PSC27 cells): approximately 60%

Compound: Oc1nc(-c2ccc(C(F)(F)F)cc2)nc2c1CSCC2 [XAV939]
- invasive effect of the PSC27-RAD DDSP (full DDSP) (prostate cancer cells [4]): markedly attenuated; also recorded: attenuates
- invasive response induced by WNT16B (prostate cancer cells [4]): completely suppressed; also recorded: suppresses
- proliferative effect of the PSC27-RAD DDSP (full DDSP CM) (prostate cancer cells [5]): markedly attenuated; also recorded: attenuates
- proliferative response induced by WNT16B (PSC27^WNT16B CM) (prostate cancer cells [5]): completely suppressed; also recorded: suppresses
- effects of PSC27-RAD-conditioned medium on promoting tumor cell survival (prostate cancer cells [6]): attenuated
- attenuation of MIT apoptotic response by PSC27^WNT16B-conditioned medium (PC3 cells [7]): blocked
- WNT16B-induced EMT-associated gene expression (epithelial cells): blocked

Compound: OO [hydrogen peroxide]
- number of γ-H2AX foci [2]: substantially increased

- WNT16B reporter activity (WNT16B promoter): induced
Compound: TNF-α

Compound: bleomycin
- number of γ-H2AX foci [2]: substantially increased
